{"source": "patent US9573904B2", "about": "“Aromatic compound and use thereof” (Sumitomo Chemical Company, Limited, priority 2013, dated 2017)", "type_in_all_cases": "in vivo", "key": {"[1]": {"tested_on": "cucumber anthracnose fungus (Colletotrichum lagenarium)", "assay": "Test Example 9 and Comparative Test Example: cucumber anthracnose control, foliar spray", "settings": "200 ppm spray on cucumber (SAGAMI HANJIRO); inoculated one day after spraying"}, "[2]": {"tested_on": "wheat rust fungus (Puccinia recondita)", "assay": "Test Example 2: wheat rust control, foliar spray", "settings": "500 ppm spray on wheat (SHIROGANE)"}, "[3]": {"tested_on": "cucumber target leaf spot fungus (Corynespora cassiicola)", "assay": "Test Example 10: cucumber target leaf spot control, foliar spray", "settings": "200 ppm spray on cucumber (SAGAMI HANJIRO)"}}, "data": [{"smiles": "COC(=O)Oc1ccccc1COc1ccc(C)cc1C", "note": "[2-[(2,4-dimethylphenoxy)methyl]phenyl=methyl=carbonate]", "values": [{"measurement": "area of lesion on the treated plant relative to that on an untreated plant", "setting": "[1]", "value": "≥ 70", "unit": "%"}]}, {"smiles": "CNC(=O)Oc1c(C)cccc1COc1ccc(-c2nn(C)c(Cl)c2C)cc1C", "note": "[present compound 6]", "values": [{"measurement": "area of lesion on the treated plant relative to that on an untreated plant", "setting": "[2]", "value": "≤ 30", "unit": "%"}]}, {"smiles": "CNC(=O)Oc1cccc(C)c1COc1ccc(-c2nn(C)c(Cl)c2C)cc1C", "note": "[present compound 7]", "values": [{"measurement": "area of lesion on the treated plant relative to that on an untreated plant", "setting": "[3]", "value": "≤ 30", "unit": "%"}]}]}
